The source of these data is PubChem BioAssay (NCI).

Some test systems named below: NCI-H226 lung; K-562 leukemia; RXF 393 renal; SK-OV-3 ovarian; HT29 colon; RPMI-8226 leukemia; OVCAR-5 ovarian.
What all share (test): growth of human tumour cells (NCI), 48 h

The structures appear in SMILES notation.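 Step 1: Grow cells in 96-well plates. Step 2: Expose to compound for 48 hours at 5 concentrations. Step 3: Interpolate endpoints linearly; if unreached, use highest concentration. At the GI50, growth is halved. TGI: concentration producing complete growth inhibition.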 Some results are limits rather than exact numbers.

Consider `CN(C)CCCN=c1cc2c(=O)n(CCCN(C)C)c(=O)c3c(NCCCN(C)C)cc4c(O)n(CCCN(C)C)c(=O)c1c4c3-2`, for which the GI50 was 0.258 µM with NCI-H226 lung; 2.13 µM with K-562 leukemia; 1.77 µM in the assay on RXF 393 renal; 1.88 µM in the assay with SK-OV-3 ovarian; 0.573 µM with HT29 colon; 4.18 µM with RPMI-8226 leukemia. Moreover, the GI50 with OVCAR-5 ovarian is 1.12 µM. In addition, the TGI was 4.12 µM with NCI-H226 lung; above 100 µM in the assay with K-562 leukemia; 4.44 µM in the assay with RXF 393 renal; 6.93 µM with SK-OV-3 ovarian; 3.58 µM in the assay with HT29 colon; 46.1 µM with RPMI-8226 leukemia. For the same compound, in the assay on OVCAR-5 ovarian, the TGI stood at 4.09 µM.
`CC(=O)Nc1ccc2oc(=O)c3ccccc3c2c1`: the TGI in the assay with NCI-H226 lung, in the assay on K-562 leukemia, with RXF 393 renal, in the assay on HT29 colon, with RPMI-8226 leukemia and in the assay with OVCAR-5 ovarian was above 100 µM throughout.
Take `Cc1ccc2c(N/N=C\c3ccco3)cc(C)nc2n1`: the GI50 was 20.1 µM in the assay with NCI-H226 lung; 3.02 µM in the assay on K-562 leukemia; 4.53 µM with RXF 393 renal; 8.74 µM with SK-OV-3 ovarian; 2.7 µM in the assay on HT29 colon; 2.48 µM in the assay on RPMI-8226 leukemia. Further, the GI50 with OVCAR-5 ovarian was 11.8 µM. In addition, the TGI in the assay with NCI-H226 lung stood at 60.3 µM; with K-562 leukemia it was 11.2 µM; in the assay on RXF 393 renal it was 17.1 µM; in the assay on SK-OV-3 ovarian, 22.7 µM; in the assay on HT29 colon, 8.95 µM; with RPMI-8226 leukemia it was 7.06 µM. The TGI in the assay with OVCAR-5 ovarian stood at 26.3 µM.
`O=C1CCC2=C3C4CCCCC4C(=O)C4CCCC(OC2C1)C34` (centres undefined): the GI50 in the assay with NCI-H226 lung was above 41.2 µM; in the assay on K-562 leukemia, 0.493 µM; with RXF 393 renal, 0.605 µM; in the assay with SK-OV-3 ovarian, 5.18 µM; in the assay with HT29 colon, 8.28 µM; in the assay with RPMI-8226 leukemia, 0.398 µM. Besides, the GI50 with OVCAR-5 ovarian was above 20.6 µM. Besides, the TGI in the assay on NCI-H226 lung is above 78.9 µM; in the assay with RXF 393 renal, 1.79 µM; with SK-OV-3 ovarian it was above 100 µM; in the assay on HT29 colon, above 100 µM; with RPMI-8226 leukemia, 2.65 µM; with OVCAR-5 ovarian, above 100 µM.
`C#Cc1cccc(Nc2ncnc3ccc(-c4cnc(Cl)c(NS(C)(=O)=O)c4)cc23)c1`: the GI50 with NCI-H226 lung is 0.564 µM; with K-562 leukemia, 0.682 µM; with RXF 393 renal, 0.218 µM; in the assay on SK-OV-3 ovarian, 0.206 µM; in the assay with HT29 colon, 0.404 µM; in the assay with RPMI-8226 leukemia it was 0.412 µM. The GI50 in the assay on OVCAR-5 ovarian is 0.329 µM. Besides, the TGI in the assay with NCI-H226 lung is 4.3 µM; in the assay with K-562 leukemia, above 100 µM; in the assay with RXF 393 renal it was 0.996 µM; with SK-OV-3 ovarian it was 1.38 µM; in the assay on RPMI-8226 leukemia it was 2.66 µM; with OVCAR-5 ovarian, 2.73 µM.
With `O=C(O[C@H]1CN[C@H](C#Cc2cc3ncnc(Nc4ccc(OCc5cccc(F)c5)c(Cl)c4)c3s2)C1)N1CCOCC1`, the GI50 is 5.32 µM in the assay on NCI-H226 lung; 11.1 µM with K-562 leukemia; 5.85 µM in the assay with RXF 393 renal; 0.0356 µM with SK-OV-3 ovarian; 5.7 µM in the assay on HT29 colon; 4.48 µM with RPMI-8226 leukemia. In addition, in the assay with OVCAR-5 ovarian, the GI50 was 10.5 µM. In addition, the TGI was 12 µM in the assay with NCI-H226 lung; above 25 µM in the assay with K-562 leukemia; above 16.6 µM in the assay with RXF 393 renal; above 25 µM in the assay with SK-OV-3 ovarian; 11.4 µM in the assay with HT29 colon; 17.3 µM with RPMI-8226 leukemia. The TGI in the assay with OVCAR-5 ovarian was above 25 µM.
On to `O=C1CC2C(=O)C1C(C(=O)O)C2C(=O)O` (centres undefined), for which the TGI in the assay with NCI-H226 lung, with K-562 leukemia, with RXF 393 renal, in the assay on SK-OV-3 ovarian, in the assay with HT29 colon and in the assay with RPMI-8226 leukemia was above 100 µM throughout. In the assay on OVCAR-5 ovarian, this compound came in with a TGI above 100 µM.
Take `CC1OC(O[C@H]2/C=C/C=C/C=C/C=C/C=C/C=C/C=C/[C@H](C)[C@@H](O)[C@@H](C)[C@H](C)OC(=O)C[C@H](O)C[C@H](O)CC[C@@H](O)[C@H](O)C[C@H](O)C[C@]3(O)C[C@H](O)[C@@H](C(=O)O)[C@H](C2)O3)C(O)C(N)C1O` (some centres undefined): the TGI in the assay with NCI-H226 lung is above 100 µM; with K-562 leukemia, above 100 µM; in the assay with RXF 393 renal it was 18.2 µM; in the assay with SK-OV-3 ovarian, 70.1 µM; in the assay with HT29 colon, 56.4 µM; in the assay on RPMI-8226 leukemia, 60.3 µM. Further, the TGI in the assay on OVCAR-5 ovarian amounted to 62.3 µM. Besides, the GI50 in the assay on RPMI-8226 leukemia is 23.9 µM; with OVCAR-5 ovarian, 27.3 µM.
On to `COC1CC2C=CC3C4OC2(/C(C)=C/C(C)C(C(C)O)OC1=O)C3C(O)C(C)C4OC(=O)c1ccc[nH]1` (centres undefined), for which the TGI in the assay on HT29 colon, in the assay with RPMI-8226 leukemia and in the assay on OVCAR-5 ovarian was above 100 µM in each case.
With `O=C1/C=C/[C@@H](O)[C@@H]2C[C@@H](O)C[C@H]2/C=C/CCC[C@H](CO)O1`, the GI50 in the assay on NCI-H226 lung was 1.21 µM; in the assay on RXF 393 renal, 1.61 µM; with SK-OV-3 ovarian it was 4.62 µM; with HT29 colon it was 0.942 µM; in the assay on RPMI-8226 leukemia it was 3.32 µM; with OVCAR-5 ovarian, 4.19 µM. The TGI is 2.74 µM with NCI-H226 lung; 5.04 µM in the assay with RXF 393 renal; above 100 µM with SK-OV-3 ovarian; 12.4 µM with HT29 colon; above 100 µM in the assay on RPMI-8226 leukemia; above 100 µM in the assay on OVCAR-5 ovarian.
As to `Cc1ccc(C(=O)CCC2C(=O)CC(C)(C)CC2=O)cc1`, the TGI in the assay with NCI-H226 lung, with RXF 393 renal, with SK-OV-3 ovarian, with HT29 colon and in the assay on OVCAR-5 ovarian was above 100 µM in each case.
In the case of `CN(C)Cc1cccc(CN(C)C)[c]1[Sn]([Br])([c]1ccccc1)[c]1ccccc1`, the GI50 in the assay on SK-OV-3 ovarian is 14.3 µM; in the assay with HT29 colon it was 8.18 µM; in the assay with RPMI-8226 leukemia, 2.29 µM; in the assay with OVCAR-5 ovarian, 16.7 µM. The TGI came out at 30.6 µM in the assay on SK-OV-3 ovarian, 71.8 µM in the assay on HT29 colon, 6.86 µM with RPMI-8226 leukemia and 32.5 µM in the assay with OVCAR-5 ovarian.
For `COc1ccc(-c2csc(NC(=O)N3CCN(c4cc5c(cc4F)c(=O)c(C(=O)O)cn5C4CC4)CC3)n2)cc1`, the GI50 is 2.95 µM in the assay on NCI-H226 lung, 2.71 µM in the assay with K-562 leukemia and 3.03 µM in the assay on RXF 393 renal. In addition, the TGI in the assay with NCI-H226 lung is above 100 µM; in the assay with K-562 leukemia, 14.9 µM; with RXF 393 renal, 23.4 µM.
